pEC50: −log10 of the molar value.
What follows are compounds tested against glutathione S-transferase (Schistosoma japonicum GST tag binding GSH beads) (assay: GST–glutathione bead interaction interference profiling – biochemical, multiplex beads, flow cytometry, profiling panel (AID 1769;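 also: target is a GST and green fluorescent protein fusion captured on glutathione beads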)). Conditions: flow cytometry fluorescence.
Cc1cc(N/N=C/c2ccc(O)cc2O)nc(-n2nc(C)cc2C)n1 was tested, and the pEC50 was 6.08. O=c1c2ccccc2nc2c3ccccc3c(NCc3ccccn3)nn12 gave a pEC50 of 5.43. COc1ccc(/C=N/NC(=O)Nc2cccc3nsnc23)cc1OC showed a pEC50 of 6.17. With COCCNC(=S)Nc1cc(OC)c(OC)cc1C#N the pEC50 was 5.31. COCCN1C(=O)/C(=C/c2ccc(N3CCCC3)cc2C)SC1=S gave a pEC50 of 5.77. COc1cc(/C=C2/SC(=Nc3ccc(O)cc3)NC2=O)cc(OC)c1O showed a pEC50 of 6.01. In the case of N#CCc1c(C#N)c(N)nc(N2CCN(C=O)CC2)c1C#N, the pEC50 was 4.80. CCOc1cc(/C=C2\SC(=O)N=C2N)ccc1O showed a pEC50 of 5.61. Compound COc1ccc(S(=O)(=O)N2CCCCC2)cc1NC(=O)c1ccc([N+](=O)[O-])o1 has a pEC50 of 4.54. Compound O=C(O)CC/C(=C\c1ccc(N2CCCC2)c([N+](=O)[O-])c1)c1nc2ccccc2s1 has a pEC50 of 4.43. Compound O=C(NCc1cccs1)c1cccn2c(=O)c3sccc3nc12 has a pEC50 of 6.18. For COc1ccc(-c2csc(C3=C(O)CN(C(C)C)C3=N)n2)cc1OC, the pEC50 was 4.06. Nc1c([N+](=O)[O-])cc(-c2cnc[nH]2)cc1[N+](=O)[O-] gave a pEC50 of 6.41. Compound N=c1oc2ccc3ccccc3c2cc1-c1nc(-c2ccccc2)cs1 has a pEC50 of 5.86. Oc1ccc(C2=Nn3c(nnc3-c3ccco3)SC2)cc1O was tested, and the pEC50 was 5.89. NC1=NC(=O)/C(=C/c2cn(CCC(=O)O)nc2-c2ccc(Cl)cc2)S1 was tested, and the pEC50 was 4.53. Cc1ccc(O)c(N=Cc2cc(Cc3ccccc3)cc([N+](=O)[O-])c2O)c1 gave a pEC50 of 5.08. For O=C(CN1CCN(c2ccc(O)cc2)CC1)Nc1cc(S(=O)(=O)N2CCCCC2)ccc1Cl, the pEC50 was 4.72. With CC(=O)Nc1ccc(Nc2ccc3c4c(cc(=O)n3C)-c3ccccc3C(=O)c24)cc1 the pEC50 was 6.82. Compound CCOC(=O)c1cc(C(=O)OCC)c(=O)[nH]c1N1CCCC1 has a pEC50 of 4.45. Work on O=C(CSc1ccccc1)Nc1ccc(C(=O)Nc2cccc(O)c2)cc1 yielded a pEC50 of 5.72. In the case of O=C(Cc1ccc(Nc2nc(=S)[nH]c3ccccc23)cc1)NC1CCCCC1, the pEC50 was 5.18. Compound COc1cc(N2CCCC2)c(OC)cc1/C=C(/C#N)c1ccc(Br)cc1 has a pEC50 of 7.13. With COc1ccc2nc(C)cc(SCC(=O)N/N=C/c3ccc(O)c(O)c3)c2c1 the pEC50 was 4.81. Work on COc1cc(/C=N/Nc2nc(C)nc3c2cnn3-c2ccccc2)ccc1O yielded a pEC50 of 6.20. In the case of O=c1c2ccc([N+](=O)[O-])cc2ncn1Cc1ccccc1C(F)(F)F, the pEC50 was 5.12. Cc1cc2nc3c(=O)n(C4CCCCC4)c(=O)[nH]c3nc2cc1N gave a pEC50 of 5.16. Compound O=[N+]([O-])c1cc(-c2ncccn2)c([N+](=O)[O-])s1 has a pEC50 of 5.12. Compound O=c1c2ccccc2nc2ccc(NCc3cccs3)nn12 has a pEC50 of 5.17. O=[N+]([O-])c1ccc2c(c1)c(-c1ccccc1)nc1nncn12 gave a pEC50 of 5.52. With COc1ccc(NC(=O)c2cc3nc(-c4ccccc4)cc(C)n3n2)cc1OC the pEC50 was 5.55. NS(=O)(=O)c1ccc(CCN2C(=O)/C(=C\c3ccc(Cl)cc3)SC2=S)cc1 was tested, and the pEC50 was 5.22. Cc1ccc(/C=N/N(C)C2=NS(=O)(=O)c3ccccc32)o1 was tested, and the pEC50 was 5.13. C/C(=N\Nc1ccc(S(N)(=O)=O)cc1[N+](=O)[O-])c1ccc2c(c1)OCO2 was tested, and the pEC50 was 5.85. Work on COc1cc(C(=S)NCc2ccccc2)cc(Br)c1O yielded a pEC50 of 4.27. For CCOC(=O)c1c2c3c(c(Cl)ccc3[nH]c1=O)C(=O)c1ccccc1-2, the pEC50 was 6.40. Compound COc1ccc2c(C)nc(N/C(N)=N/S(=O)(=O)c3ccc(C)cc3)nc2c1 has a pEC50 of 5.12. With CSc1nc2ccc(NC(=O)C3CC(=O)N(Cc4ccco4)C3)cc2s1 (centres undefined) the pEC50 was 4.33. COc1cc2c(cc1OC)-c1cc(NC3CCCCCCC3)nc(=O)n1CC2 gave a pEC50 of 4.69. Compound O=C1/C(=C/c2ccc(N3CCOCC3)o2)SC(=Nc2ccccc2)N1CCc1c[nH]c2ccccc12 has a pEC50 of 7.16. CCn1cc(C(=O)O)c(=O)c2cc(F)c(N/N=C/c3ccccc3[N+](=O)[O-])cc21 showed a pEC50 of 5.57. Compound COc1ccc(/C=N/NC(=O)c2ccncc2)cc1Cn1nc([N+](=O)[O-])c(Br)c1C has a pEC50 of 5.04. Work on CN(/N=C/c1ccc(Br)o1)C1=NS(=O)(=O)c2ccccc21 yielded a pEC50 of 6.73. In the case of O=C(/C=C/c1ccc(N2CCC(c3ccccc3)=N2)cc1)c1ccccc1, the pEC50 was 6.47. O=C(N/N=C/c1ccco1)c1ccc(C(=O)N/N=C/c2ccco2)o1 gave a pEC50 of 4.71. For Cc1cc2nc3c(=O)[nH]c(=O)[nH]c3nc2c([N+](=O)[O-])c1N, the pEC50 was 5.93. With O=c1nc2c(O)cccn2c2c1c(=O)[nH]c1ccccc12 the pEC50 was 5.59. CCC(C)N1C(=O)/C(=C/c2c(NCCCOC(C)C)nc3c(C)cccn3c2=O)SC1=S (centres undefined) showed a pEC50 of 6.70. For O=C(O)c1cc(C(=O)O)cc(-c2ccc(/C=c3/sc4nc5ccccc5n4c3=O)o2)c1, the pEC50 was 4.93. O=C(COC(=O)c1ccc2c(c1[N+](=O)[O-])C(=O)c1ccccc1C2=O)NC1CC1 gave a pEC50 of 4.55. Work on Nc1c(C(=O)C2CC2)sc2nc(-c3cccs3)cc(C(F)(F)F)c12 yielded a pEC50 of 4.71. For Cc1cccc(/C=N/N(CCO)C2=NS(=O)(=O)c3ccccc32)c1, the pEC50 was 4.22. O=c1c2ccccc2nc2ccc(NCc3ccco3)nn12 was tested, and the pEC50 was 4.29. Work on O=C(N/N=C(\c1ccccc1)c1ccccn1)c1cccc([N+](=O)[O-])c1 yielded a pEC50 of 4.42.
